Assay: Scanning Electron Microscopy (SEM) analysis of collected particles
Assay type: physicochemical
Conditions: SEM micrograph; particles made by third embodiment (droplets frozen on contact with CO2/ethanol/water extracting fluid at −23° C., solid-liquid extraction)
Procedure: The collected particles were analyzed using Scanning Electron Microscopy (SEM). From FIG. 11 it is clear that the GF particles are in the form of non-agglomerated crystals, having an orthorhombic shape. The mean size of the substantially uniform particles is around 5-10 μm.
Analysis of the porous lactose particles was carried out in the same manner as described in Example 1. FIG. 12 is an SEM micrograph of the lactose particles. […] If desired, these lactose nanocrystals can be obtained simply by crumbling the large porous lactose spheres.

mean size of the particles | SMILES
5-10 μm | COC1=CC(=O)C[C@@H](C)[C@]12Oc1c(Cl)c(OC)cc(OC)c1C2=O [GF, Griseofulvin]
20-30 μm | OC[C@H]1O[C@@H](O[C@H]2[C@H](O)[C@@H](O)C(O)O[C@@H]2CO)[C@H](O)[C@@H](O)[C@H]1O (some centres unmarked) [lactose, Lactose]

Source: patent US20060138687A1, “Method of forming particles” (Ferro Corporation, priority 2003, published 2006)
